Test results as given in patent US20230240953A1, “AN ANTIMICROBIAL COMPOSITION, PROCESS FOR PREPARING THE SAME AND METHOD OF USE THEREOF” (ISP INVESTMENTS LLC, priority 2020, published 2023).
Values after ≈ are worked out from the molar mass of the structure shown.

Experiments:
Assay type in all cases: cell-based
[1] = test system: Aspergillus brasiliensis 16404; test: Minimal inhibitory concentration (MIC), microplate broth dilution; details: YMB, 10^5 cfu/ml, 4-5 days at 28° C., read-out: Minimal Inhibitory Concentrations (MICs) mean values, A. brasiliensis
Description: (§1) Briefly, each active was dissolved and then serially diluted in DMSO using a 96-well dilution microplate. Automated liquid handler was then used to stamp multiple assay plates out of this dilution plate. The appropriate growth medium containing a desired microorganism was then added to each well of the plate. For bacterial strains, Trypticase Soy Broth (TSB) was used with the final cell density of the microorganisms, in each well, being 10^6 cfu/ml. For fungal strains, Yeast Malt Broth (YMB) was used with the final density of each microorganism being 10^5 cfu/ml. Bacterial plates were incubated for 48 hours at 35° C. and fungal plates were incubated for 4-5 days at 28° C. prior to being evaluated. The lowest concentration of each compound to inhibit any visible growth was defined as minimum inhibitory concentration (MIC). In some cases, the highest tested concentration of the active was limited by its solubility in water. Whenever MIC was greater than the highest tested concentration, it was reported as being equal to, or greater than (>) the previous hypothetical dilution.

[2] = test system: Staphylococcus aureus 6538; test: as above; details: TSB, 10^6 cfu/ml, 48 hours at 35° C., read-out: Minimal Inhibitory Concentrations (MICs) mean values, S. aureus
Description: as §1

[3] = test system: Candida albicans 10231; test: as above; details: YMB, 10^5 cfu/ml, 4-5 days at 28° C., read-out: Minimal Inhibitory Concentrations (MICs) mean values, C. albicans
Description: as §1

[4] = test system: Pseudomonas aeruginosa 9027; test: as above; details: TSB, 10^6 cfu/ml, 48 hours at 35° C., read-out: Minimal Inhibitory Concentrations (MICs) mean values, P. aeruginosa
Description: as §1

[5] = test system: Burkholderia cepacia 25416; test: as above; details: TSB, 10^6 cfu/ml, 48 hours at 35° C., read-out: Minimal Inhibitory Concentrations (MICs) mean values, B. cepacia
Description: as §1

[6] = test system: Escherichia coli 8739; test: as above; details: TSB, 10^6 cfu/ml, 48 hours at 35° C., read-out: Minimal Inhibitory Concentrations (MICs) mean values, E. coli
Description: as §1

[7] = test system: Staphylococcus aureus 6538; test: Checkerboard microplate synergy assay, compound A = HPB; details: S. aureus; for MIC: Staphylococcus aureus, 6538
Description: (§2) The synergistic antimicrobial effect was determined using a commonly accepted method described by Kull A. C, Eisman, P. C. Sylwestrowicz, H. D. and Mayer, R. L. 1961. Applied Microbiology, 9:538-541
(§3) Briefly, the standard checkerboard approach was used to make all the dilutions. HPB (compound A) solution was prepared and then serially diluted in DMSO using the 96-well dilution plate. Automated liquid handler was then used to stamp multiple assay plates using this dilution plate. Each well of the assay plate was then supplemented with a predetermined concentration of the second antimicrobial (compound B). The final concentration of DMSO was kept constant across the plate for each assay, not exceeding 3% (w/w).
(§4) To evaluate antibacterial activity of the actives, freshly prepared S. aureus and B. cepacia cells were harvested and resuspended in Trypticase Soy Broth (TSB). The cell suspension was then added to the wells of the appropriate plates with the final cell density being 10^6 cfu/ml. Fungal plates were incubated at 28° C. for 4-5 days, prior to being evaluated. Bacterial plates were incubated for 48 hours at 35° C. prior to being evaluated.
(§5) Synergy Index (SI)=Qa/QA+Qb/QB • Qa is the MIC of compound A (HPB) in ppm, when compound A is being used in combination with compound B • QA is the MIC of compound A (HPB) in ppm, acting alone • Qb is the MIC of compound B in ppm, when the compound B is being used in combination with compound A • QB is the MIC of compound B in ppm, acting alone Each ratio Qa/QA and Qb/QB is sometimes referred to as Fractional Inhibitory Concentrations (FICs) of compounds A and B, respectively, when these two compounds are being used in combination with one another. The sum of FICs constitute the Synergy Index (SI). The synergistic effect is indicated if the Synergy Index is below one (SI<1). An additive effect is indicated if the Synergy Index is equal to one (SI=1). An antagonistic effect is indicated if synergy index is greater than one (SI>1). The lower the SI index the greater the synergy.

[8] = test system: Burkholderia cepacia 25416; test: as above; details: B. cepacia; for MIC: Burkholderia cepacia, 25416
Description: as §2, §3, §4, §5

[9] = test system: Aspergillus brasiliensis 16404; test: as above; design: key to SI index (Synergy Index = Qa/QA+Qb/QB): SI = Qa/QA + Qb/QB (MICs in ppm); <1 synergy, =1 additive, >1 antagonism
Description: as §2, §3
To evaluate antifungal activity of the actives, freshly prepared A. brasiliensis spores were harvested and resuspended in Yeast and Malt Broth (YMB). The spore suspension was then added to the appropriate plates with the final density being 10^5 cfu/ml.
as §4, §5

[10] = HPB alone, read-out: HPB (QA): MIC of HPB acting alone

| SMILES | MIC [1] [µg/mL] | MIC [2] [µg/mL] | MIC [3] [µg/mL] | MIC [4] [µg/mL] | MIC [5] [µg/mL] | MIC [6] [µg/mL] | other results |
| --- | --- | --- | --- | --- | --- | --- | --- |
| COc1ccc(CCC(C)=O)cc1 [Raspberry ketone methyl ether, 4-(4-methoxyphenyl)butan-2-one] | 1000 (≈ 5.61 mM) | 28000 (≈ 157 mM) | 2000 (≈ 11.2 mM) | 4000 (≈ 22.4 mM) | 1000 (≈ 5.61 mM) | 2000 (≈ 11.2 mM) |  |
| CC(=O)CCc1ccc(O)cc1 [Raspberry ketone, 4-(4-hydroxyphenyl) butan-2-one] | 4000 (≈ 24.4 mM) | 28000 (≈ 171 mM) | 4000 (≈ 24.4 mM) | 4000 (≈ 24.4 mM) | 2000 (≈ 12.2 mM) | 4000 (≈ 24.4 mM) | MIC [7, 10]: ≥ 8000 µg/mL; MIC [8, 10]: 2000 µg/mL; MIC ([9]; Aspergillus brasiliensis, 16404, HPB alone, read-out: HPB (QA): MIC of HPB acting alone): 4000 µg/mL |
| CC(=O)/C=C/c1ccc(O)cc1 [4-Hydroxybenzylideneacetone, (E)-4-(4-hydroxyphenyl)but-3-en-2-one] | 1000 (≈ 6.17 mM) | 500 (≈ 3.08 mM) | 500 (≈ 3.08 mM) | 4000 (≈ 24.7 mM) | 1000 (≈ 6.17 mM) | 2000 (≈ 12.3 mM) |  |
| CCCCCCCCCCCCCC[N+](C)(C)C.[Br-] [Tetradecyl trimethyl ammonium bromide] |  |  |  |  |  |  | Interaction ([7]; HPB + compound B): synergistic; SI index (Synergy Index = Qa/QA+Qb/QB) ([7]; HPB + compound B): ≤0.5; Compound B (Qb): MIC of compound B when used in combination with HPB ([7]; combination with HPB): 0.4 ppm; MIC ([7]; compound B alone, read-out: Compound B (QB): MIC of compound B acting alone): 1.6 µg/mL; Interaction ([8]; HPB + compound B): synergistic; SI index (Synergy Index = Qa/QA+Qb/QB) ([8]; HPB + compound B): 0.625; Compound B (Qb): MIC of compound B when used in combination with HPB ([8]; combination with HPB): 6.3 ppm; MIC ([8]; compound B alone, read-out: Compound B (Qb): MIC of compound B acting alone): 50 µg/mL; MIC ([9]; Aspergillus brasiliensis, 16404, compound B alone, read-out: Compound B (Qb): MIC of compound B acting alone): 25 µg/mL; Interaction ([9]; HPB + compound B): Synergistic (The synergistic effect is indicated if the Synergy Index is below one (SI<1)); SI index (Synergy Index = Qa/QA+Qb/QB) ([9]; HPB + compound B): 0.375; Compound B (Qb): MIC of compound B when used in combination with HPB ([9]; combination with HPB): 3.1 ppm |
